The assay is described as follows: Kill rate of peracetic acid 400-660 ppm with and without adjuvant. The conditions noted are these: peracetic acid 400-660 ppm in aqueous solution. In kind it is cell-based. An excerpt: Use of oxidative lysing agents such as peracetic acid in aqueous solution at concentration(s) ranging from 400-660 ppm provided only moderate kill rates with log reductions of 4-5.5. However, use of peracetic acid at the same concentrations with the addition of the adjuvant herein described produced improved kill rates up to complete destruction of the species with log reductions of 6 or recovery rates of 0.

Turning to `CC(=O)OO` [peracetic acid], the log reductions is 4-5.5 log.
